In assay [1] the test system is EGFR Del19/T790M/C797S (BaF3-DTC cells). As to the kind of experiment: EGFR degradation HTRF assay, BaF3-DTC cells. In kind it is cell-based. Conditions: 16h treatment; for DTC Dmax (%): maximum percentage of degradation; for DC50: read-out: DTC DC50. Summed up: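 Cells treated 16 h at 37 °C, 5% CO2 in medium with 0.2% DMSO; top final concentration 10 uM, 5-fold dilution, 8 doses. Lysates read by HTRF (665/620 nm); degradation % versus DMSO high control, DC50 from four-parameter fit, Dmax as maximal degradation.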
(In general: In TR-FRET formats the signal depends on donor and acceptor labels being close together.)

In assay [2] the target is T1, EGFR L858R/T790M/C797S (BaF3-LTC cells) (Homo sapiens, UniProt P00533, C797S/L858R/T790M).
T1 construct: expressed in transfected cells; host or cells: BaF3
T1 sequence (P00533 25-1210 T790M/C797S/L858R): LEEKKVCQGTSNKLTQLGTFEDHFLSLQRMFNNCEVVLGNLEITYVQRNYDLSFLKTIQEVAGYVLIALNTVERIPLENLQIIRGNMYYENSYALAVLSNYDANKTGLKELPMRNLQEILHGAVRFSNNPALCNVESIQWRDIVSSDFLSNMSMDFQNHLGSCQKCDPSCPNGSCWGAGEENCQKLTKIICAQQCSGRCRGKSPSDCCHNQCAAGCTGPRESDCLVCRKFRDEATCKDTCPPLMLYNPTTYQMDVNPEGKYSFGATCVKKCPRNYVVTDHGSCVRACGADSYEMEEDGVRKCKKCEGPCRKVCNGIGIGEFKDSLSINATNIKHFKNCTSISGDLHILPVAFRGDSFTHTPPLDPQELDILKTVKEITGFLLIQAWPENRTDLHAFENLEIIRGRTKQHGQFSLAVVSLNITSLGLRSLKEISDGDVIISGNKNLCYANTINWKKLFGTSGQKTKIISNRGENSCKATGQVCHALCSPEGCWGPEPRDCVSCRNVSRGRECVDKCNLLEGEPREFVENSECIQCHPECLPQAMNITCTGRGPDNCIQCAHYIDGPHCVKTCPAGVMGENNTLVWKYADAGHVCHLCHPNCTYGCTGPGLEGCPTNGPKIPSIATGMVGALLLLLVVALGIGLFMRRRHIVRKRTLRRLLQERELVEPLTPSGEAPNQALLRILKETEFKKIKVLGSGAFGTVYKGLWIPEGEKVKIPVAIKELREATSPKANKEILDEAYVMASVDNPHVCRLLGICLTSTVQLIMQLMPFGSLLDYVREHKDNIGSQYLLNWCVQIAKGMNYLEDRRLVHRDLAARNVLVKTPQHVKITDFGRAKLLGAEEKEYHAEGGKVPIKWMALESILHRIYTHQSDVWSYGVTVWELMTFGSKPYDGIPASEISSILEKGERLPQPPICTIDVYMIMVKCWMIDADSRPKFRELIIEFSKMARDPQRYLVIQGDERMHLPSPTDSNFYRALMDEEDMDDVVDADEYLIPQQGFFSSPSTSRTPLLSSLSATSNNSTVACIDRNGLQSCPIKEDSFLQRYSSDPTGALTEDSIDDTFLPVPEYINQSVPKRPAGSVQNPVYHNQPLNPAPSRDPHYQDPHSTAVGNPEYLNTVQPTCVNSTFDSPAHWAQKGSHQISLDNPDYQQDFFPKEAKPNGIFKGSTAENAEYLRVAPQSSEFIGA
As to the kind of experiment: EGFR degradation HTRF assay, BaF3-LTC cells. In kind it is cell-based. As to conditions: BaF3-LTC, 16h treatment; for Dmax: maximum percentage of degradation, read-out: LTC Dmax (%); for DC50: read-out: LTC DC50. Summed up: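 EGFR remaining after a 16 h, 37 °C exposure (8 doses, 5-fold steps from 10 uM final, 0.2% DMSO) was quantified by HTRF antibodies in cell lysate. Percent inhibition relative to DMSO control was fitted by four-parameter logistic to give DC50; Dmax denotes maximal degradation.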

For orientation: DC50 means the midpoint of the concentration-degradation curve. The term Dmax denotes the largest share of the target that was removed. Regarding `CCc1cc(Nc2ncc(Br)c(Nc3ccc4nc(C)ccc4c3P(C)(C)=O)n2)c(OC)cc1N1CCC(N2CCN(CCN(C)c3cccc4c3CN(C3CCC(=O)NC3=O)C4=O)CC2)CC1` (centres unmarked) [Example 256, 3-(4-((2-(4-(1-(4-((5-bromo-4-((5-(dimethylphosphoryl)-2-methylquinolin-6-yl)amino)pyrimidin-2-yl)amino)-2-ethyl-5-methoxyphenyl)piperidin-4-yl)piperazin-1-yl)ethyl)(methyl)amino)-1-oxoisoindolin-2-yl)piperidine-2,6-dione], in assay [1], the “DTC Dmax (%)” value is listed as 94.38% and the DC50 amounted to 1.78 nM. Besides, in assay [2], the Dmax amounted to 91.8% and the DC50 came out at 7.84 nM.

In the case of `CCc1cc(Nc2ncc(Br)c(Nc3ccc4ncn(C)c(=O)c4c3P(C)(C)=O)n2)c(OC)cc1N1CCC(N2CCN(C(=O)C3CN(c4ccc5c(c4)CN(C4CCC(=O)NC4=O)C5=O)C3)CC2)CC1` (centres unmarked) [Example 712, 3-(5-(3-(4-(1-(4-((5-bromo-4-((5-(dimethylphosphoryl)-3-methyl-4-oxo-3,4-dihydroquinazolin-6-yl)amino)pyrimidin-2-yl)amino)-2-ethyl-5-methoxyphenyl)piperidin-4-yl)piperazine-1-carbonyl)azetidin-1-yl)-1-oxoisoindolin-2-yl)piperidine-2,6-dione], in assay [1], the “DTC Dmax (%)” value amounted to 91.27% and the DC50 was determined as 2.06 nM. In assay [2], the Dmax was determined as 88.6% and the DC50 was found to be 7.34 nM.

For the compound `CCc1cc(Nc2ncc(Br)c(Nc3ccc4nccnc4c3P(C)(C)=O)n2)c(OC)cc1N1CCC(N2CCN(C(=O)CC3CCN(c4cc(F)c(C5CCC(=O)NC5=O)c(F)c4)CC3)CC2)CC1` (centres unmarked) [Example 274, 3-(4-(4-(2-(4-(1-(4-((5-bromo-4-((5-(dimethylphosphoryl)quinoxalin-6-yl)amino)pyrimidin-2-yl)amino)-2-ethyl-5-methoxyphenyl)piperidin-4-yl)piperazin-1-yl)-2-oxoethyl)piperidin-1-yl)-2,6-difluorophenyl)piperidine-2,6-dione], in assay [1], the “DTC Dmax (%)” value turned out to be 89.85% and the DC50 amounted to 15.9 nM. Moreover, in assay [2], the maximal degradation (Dmax) is 96% and the half-maximal degradation concentration (DC50) came out at 24.3 nM.

Turning to `CCc1cc(Nc2ncc(Br)c(Nc3ccc4nccnc4c3P(C)(C)=O)n2)c(OC)cc1N1CCC(N2CCN(CC3CCN(c4cc(F)c(C5CCC(=O)NC5=O)c(F)c4)CC3)CC2)CC1` (centres unmarked) [Example 303, 3-(4-(4-((4-(1-(4-((5-bromo-4-((5-(dimethylphosphoryl)quinoxalin-6-yl)amino)pyrimidin-2-yl)amino)-2-ethyl-5-methoxyphenyl)piperidin-4-yl)piperazin-1-yl)methyl)piperidin-1-yl)-2,6-difluorophenyl)piperidine-2,6-dione], in assay [1], the “DTC Dmax (%)” value is on record as 90.93% and the DC50 turned out to be 10.6 nM. For the same compound, in assay [2], the Dmax was 86.7% and the DC50 is 41.2 nM.

Consider `CCc1cc(Nc2ncc(Br)c(Nc3ccc4nc(CO)ccc4c3P(C)(C)=O)n2)c(OC)cc1N1CCC(N2CCN(CCc3cc(F)c(C4CCC(=O)NC4=O)c(F)c3)CC2)CC1` (centres unmarked) [Example 329, 3-(4-(2-(4-(1-(4-((5-bromo-4-((5-(dimethylphosphoryl)-2-(hydroxymethyl)quinolin-6-yl)amino)pyrimidin-2-yl)amino)-2-ethyl-5-methoxyphenyl)piperidin-4-yl)piperazin-1-yl)ethyl)-2,6-difluorophenyl)piperidine-2,6-dione], for which, in assay [1], the “DTC Dmax (%)” value was determined as 96.43% and the half-maximal degradation concentration (DC50) was determined as 1.72 nM. In assay [2], the maximal degradation (Dmax) came out at 92.4% and the 50% degradation concentration (DC50) came to 2.9 nM.
